Experimental data as given in ChEMBL document CHEMBL1201862, “PubChem BioAssay data set” (2004).
Active and inactive are the calls of the source.

Legend:
[1] = target: T1, Tyrosine-protein phosphatase non-receptor type 22 (Homo sapiens, UniProt Q9Y2R2); type: functional
[2] = target: T2, Tyrosine-protein phosphatase non-receptor type 7 (Homo sapiens, UniProt P35236); type: functional
T2 sequence (P35236 whole entry): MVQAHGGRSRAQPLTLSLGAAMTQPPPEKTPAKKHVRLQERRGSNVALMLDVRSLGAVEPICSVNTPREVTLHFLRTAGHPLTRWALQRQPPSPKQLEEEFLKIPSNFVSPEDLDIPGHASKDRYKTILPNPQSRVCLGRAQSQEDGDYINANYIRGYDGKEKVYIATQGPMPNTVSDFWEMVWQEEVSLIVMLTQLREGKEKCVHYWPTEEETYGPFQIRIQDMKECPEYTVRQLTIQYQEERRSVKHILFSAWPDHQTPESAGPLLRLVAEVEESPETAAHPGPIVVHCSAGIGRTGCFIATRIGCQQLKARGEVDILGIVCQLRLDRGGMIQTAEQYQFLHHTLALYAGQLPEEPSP

[3] = target: T1, Tyrosine-protein phosphatase non-receptor type 22; type: functional; remark: listed apart in the source
[4] = inhibitors of intracellular T. cruzi replication, confirmation, NIH3T3 host cells, beta-gal luminescence (AID 2044); type: functional, cell-based;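 also: intracellular parasites grown in NIH/3T3 mouse fibroblasts as host cells; luminescent beta-galactosidase reporter signal from transgenic T. cruzi replicating inside host cells; inhibitors lower the luminescence signal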
[5] = target: T3, Kappa-type opioid receptor (Homo sapiens, UniProt P41145); type: functional
[6] = inhibitors of firefly luciferase expression or activity, dose response, H4 neuroglioma cells, luminescence (AID 1990); type: functional, cell-based
[7] = inhibitors of SNCA 5'UTR-driven reporter translation, confirmation, H4 neuroglioma cells, luminescence (AID 1988); type: functional, cell-based
[8] = cytotoxicity toward NIH3T3 fibroblasts, dose response, counter-screen, cell-based, ATP luminescence, mouse fibroblasts (AID 2010); type: functional;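 also: cells exposed to compound for about 90 hours before reading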
[9] = Luminescence Cell-Based Dose Response HTS to Identify Inhibitors of 5'UTR Stem-Loop Driven Prion Protein mRNA Translation in H4 Neuroglioblastoma Cells. [Related pubchem assays: 1827 (Project Summary), 1813 (Primary HTS)]; type: functional
[10] = target: T4, Heat shock factor protein 1 (Mus musculus, UniProt P38532); test: HSF1 potentiators in luciferase reporter cells, confirmation, cell-based, NIH3T3, luminescence, dose retest (AID 435004); type: functional;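 also: stress induced by proteasome inhibitor MG132 added 30 min after compound; luciferase reporter driven by HSF1 response element in NIH3T3 cells; actives raise luminescence as potentiators of the MG132 stress response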
T4 sequence (P38532 whole entry): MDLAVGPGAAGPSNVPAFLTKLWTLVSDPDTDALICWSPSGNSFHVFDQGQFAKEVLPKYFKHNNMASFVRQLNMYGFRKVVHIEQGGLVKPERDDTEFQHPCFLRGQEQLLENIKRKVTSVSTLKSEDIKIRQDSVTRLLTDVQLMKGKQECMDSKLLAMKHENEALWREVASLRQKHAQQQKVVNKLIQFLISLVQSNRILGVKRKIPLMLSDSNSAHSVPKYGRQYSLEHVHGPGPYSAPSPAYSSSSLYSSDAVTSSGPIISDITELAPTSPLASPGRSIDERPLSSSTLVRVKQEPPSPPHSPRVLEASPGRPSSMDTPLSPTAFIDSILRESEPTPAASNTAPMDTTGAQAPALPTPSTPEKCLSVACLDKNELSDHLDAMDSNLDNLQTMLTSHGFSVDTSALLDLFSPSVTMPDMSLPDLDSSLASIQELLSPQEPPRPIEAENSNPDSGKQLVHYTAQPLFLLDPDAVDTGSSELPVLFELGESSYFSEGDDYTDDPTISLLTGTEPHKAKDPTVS

[11] = target: T3, Kappa-type opioid receptor; type: functional; remark: listed apart in the source
[12] = target: T5, Delta-type opioid receptor (Homo sapiens, UniProt P41143); test: HTS Image-Based Screen for Agonists of the DOR Receptor. [Related pubchem assays (depositor defined):AID1777, AID1786, AID2133]; type: functional
[13] = target: Beta-galactosidase (Escherichia coli, UniProt Q8VNN2); type: functional
[14] = target: Mu-type opioid receptor (Homo sapiens, UniProt P35372); test: HTS Image-Based Screen for Agonists of the MOR Receptor. [Related pubchem assays (depositor defined):AID1777, AID1785, AID1786, AID2133]; type: functional;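 also: imaging of beta-arrestin GFP recruitment into spots after receptor activation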
[15] = target: T6, Microphthalmia-associated transcription factor (Homo sapiens, UniProt O75030); test: TRPM1 promoter luciferase signal decrease, dose response, MITF inhibitor project, cell-based, SK-MEL-5, cherry-picked, set 3 (AID 493073); type: functional
T6 sequence (O75030 whole entry): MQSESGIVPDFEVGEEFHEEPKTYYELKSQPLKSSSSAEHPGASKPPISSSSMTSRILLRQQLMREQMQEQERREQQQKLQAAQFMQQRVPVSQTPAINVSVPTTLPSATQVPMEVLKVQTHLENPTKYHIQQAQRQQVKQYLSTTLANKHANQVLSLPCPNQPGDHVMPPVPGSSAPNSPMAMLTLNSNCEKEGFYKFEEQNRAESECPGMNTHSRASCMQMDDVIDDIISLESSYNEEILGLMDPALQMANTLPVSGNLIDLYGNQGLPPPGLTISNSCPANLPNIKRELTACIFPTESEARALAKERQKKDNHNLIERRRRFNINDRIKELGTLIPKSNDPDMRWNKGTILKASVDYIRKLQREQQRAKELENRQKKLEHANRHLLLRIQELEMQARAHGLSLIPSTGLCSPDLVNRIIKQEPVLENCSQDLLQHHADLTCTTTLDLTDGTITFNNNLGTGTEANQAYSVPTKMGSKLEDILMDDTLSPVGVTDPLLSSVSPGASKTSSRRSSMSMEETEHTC

[16] = target: G-protein coupled receptor 55 (Homo sapiens, UniProt Q9Y2T6); test: GPR55 agonists via beta-arrestin recruitment, primary screen, imaging, U2OS cells, beta-arrestin-GFP redistribution (AID 1961); type: functional
[17] = target: T5, Delta-type opioid receptor; test: HTS Image-Based Screen for Antagonists of the DOR Receptor. [Related pubchem assays (depositor defined):AID1777, AID1785, AID1786, AID2133]; type: functional

T3 sequence (P41145 whole entry): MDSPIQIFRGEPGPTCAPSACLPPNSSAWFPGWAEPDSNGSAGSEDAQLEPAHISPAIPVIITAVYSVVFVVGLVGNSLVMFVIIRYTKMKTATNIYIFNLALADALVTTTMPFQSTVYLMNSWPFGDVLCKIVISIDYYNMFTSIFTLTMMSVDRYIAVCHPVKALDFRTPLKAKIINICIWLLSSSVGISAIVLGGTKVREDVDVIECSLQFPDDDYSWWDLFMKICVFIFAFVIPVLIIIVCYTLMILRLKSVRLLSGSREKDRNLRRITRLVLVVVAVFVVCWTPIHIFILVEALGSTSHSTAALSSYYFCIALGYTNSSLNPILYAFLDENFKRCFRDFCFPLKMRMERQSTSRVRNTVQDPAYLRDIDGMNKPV
T1 sequence (Q9Y2R2 whole entry): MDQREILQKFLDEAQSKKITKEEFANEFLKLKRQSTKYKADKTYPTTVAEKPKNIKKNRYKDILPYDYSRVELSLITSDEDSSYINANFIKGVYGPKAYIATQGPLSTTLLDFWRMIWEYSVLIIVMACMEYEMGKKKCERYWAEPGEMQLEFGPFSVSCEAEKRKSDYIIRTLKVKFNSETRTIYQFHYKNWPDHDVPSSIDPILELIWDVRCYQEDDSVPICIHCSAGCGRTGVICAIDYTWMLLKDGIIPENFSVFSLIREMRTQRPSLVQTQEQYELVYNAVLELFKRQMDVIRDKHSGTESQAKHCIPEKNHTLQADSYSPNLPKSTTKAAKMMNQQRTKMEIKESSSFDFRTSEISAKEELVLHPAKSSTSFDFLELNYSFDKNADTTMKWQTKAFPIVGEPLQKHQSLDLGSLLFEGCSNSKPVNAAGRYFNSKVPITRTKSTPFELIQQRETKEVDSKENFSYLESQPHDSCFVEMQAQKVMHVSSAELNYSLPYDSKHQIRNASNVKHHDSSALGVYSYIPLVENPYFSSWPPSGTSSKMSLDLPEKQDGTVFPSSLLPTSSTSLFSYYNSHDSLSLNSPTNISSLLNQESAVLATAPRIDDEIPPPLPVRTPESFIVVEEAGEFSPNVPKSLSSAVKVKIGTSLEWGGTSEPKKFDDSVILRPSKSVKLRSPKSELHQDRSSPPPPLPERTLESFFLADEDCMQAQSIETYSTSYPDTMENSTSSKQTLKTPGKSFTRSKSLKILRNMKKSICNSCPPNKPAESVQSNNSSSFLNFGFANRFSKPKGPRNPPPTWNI
T5 sequence (P41143 whole entry): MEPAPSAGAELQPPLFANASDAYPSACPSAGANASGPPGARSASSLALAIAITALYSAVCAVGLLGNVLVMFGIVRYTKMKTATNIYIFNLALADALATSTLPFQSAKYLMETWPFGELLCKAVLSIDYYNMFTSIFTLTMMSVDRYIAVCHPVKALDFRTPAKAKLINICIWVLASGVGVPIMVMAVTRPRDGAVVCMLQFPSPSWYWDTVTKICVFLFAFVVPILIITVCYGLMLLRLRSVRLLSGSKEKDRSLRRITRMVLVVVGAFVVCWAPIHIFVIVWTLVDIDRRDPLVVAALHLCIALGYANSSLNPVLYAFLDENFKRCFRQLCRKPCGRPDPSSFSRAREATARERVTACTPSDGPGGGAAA
Chain of G-protein coupled receptor 55 (Q9Y2T6 whole entry): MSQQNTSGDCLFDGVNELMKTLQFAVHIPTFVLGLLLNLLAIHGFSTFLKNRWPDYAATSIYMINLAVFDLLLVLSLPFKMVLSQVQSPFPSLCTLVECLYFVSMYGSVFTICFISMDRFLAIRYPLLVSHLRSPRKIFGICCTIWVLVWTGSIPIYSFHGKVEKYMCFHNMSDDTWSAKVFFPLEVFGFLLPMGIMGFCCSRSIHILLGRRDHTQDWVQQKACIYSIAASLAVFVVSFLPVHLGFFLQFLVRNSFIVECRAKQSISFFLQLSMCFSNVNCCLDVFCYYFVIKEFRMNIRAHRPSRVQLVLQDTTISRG
Chain of Beta-galactosidase (Q8VNN2 whole entry): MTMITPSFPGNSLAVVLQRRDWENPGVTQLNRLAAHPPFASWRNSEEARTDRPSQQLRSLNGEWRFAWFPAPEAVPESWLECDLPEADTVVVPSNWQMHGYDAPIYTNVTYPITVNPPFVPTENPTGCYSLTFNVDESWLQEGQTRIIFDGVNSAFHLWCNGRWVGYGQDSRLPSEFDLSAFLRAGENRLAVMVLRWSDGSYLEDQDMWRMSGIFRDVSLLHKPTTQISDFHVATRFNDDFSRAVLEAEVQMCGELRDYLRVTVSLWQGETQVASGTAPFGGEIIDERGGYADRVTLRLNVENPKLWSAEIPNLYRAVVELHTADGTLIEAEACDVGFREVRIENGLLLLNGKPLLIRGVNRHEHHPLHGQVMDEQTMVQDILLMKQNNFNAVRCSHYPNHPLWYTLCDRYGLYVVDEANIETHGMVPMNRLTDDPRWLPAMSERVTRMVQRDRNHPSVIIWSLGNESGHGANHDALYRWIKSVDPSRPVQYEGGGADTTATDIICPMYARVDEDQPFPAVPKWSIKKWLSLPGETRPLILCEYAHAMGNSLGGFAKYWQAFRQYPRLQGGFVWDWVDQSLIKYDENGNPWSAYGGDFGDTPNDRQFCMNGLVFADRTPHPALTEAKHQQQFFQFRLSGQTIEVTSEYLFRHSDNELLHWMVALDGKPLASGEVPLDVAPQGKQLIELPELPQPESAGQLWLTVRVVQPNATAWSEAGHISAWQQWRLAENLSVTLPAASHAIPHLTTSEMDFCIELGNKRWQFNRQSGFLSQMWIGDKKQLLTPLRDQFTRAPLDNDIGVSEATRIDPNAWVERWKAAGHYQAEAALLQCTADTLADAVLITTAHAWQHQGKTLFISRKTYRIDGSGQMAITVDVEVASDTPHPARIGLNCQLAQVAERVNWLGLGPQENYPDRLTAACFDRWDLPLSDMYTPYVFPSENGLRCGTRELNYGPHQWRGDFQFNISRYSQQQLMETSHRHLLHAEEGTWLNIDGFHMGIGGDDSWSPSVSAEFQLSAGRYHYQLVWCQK
Chain of Mu-type opioid receptor (P35372 whole entry): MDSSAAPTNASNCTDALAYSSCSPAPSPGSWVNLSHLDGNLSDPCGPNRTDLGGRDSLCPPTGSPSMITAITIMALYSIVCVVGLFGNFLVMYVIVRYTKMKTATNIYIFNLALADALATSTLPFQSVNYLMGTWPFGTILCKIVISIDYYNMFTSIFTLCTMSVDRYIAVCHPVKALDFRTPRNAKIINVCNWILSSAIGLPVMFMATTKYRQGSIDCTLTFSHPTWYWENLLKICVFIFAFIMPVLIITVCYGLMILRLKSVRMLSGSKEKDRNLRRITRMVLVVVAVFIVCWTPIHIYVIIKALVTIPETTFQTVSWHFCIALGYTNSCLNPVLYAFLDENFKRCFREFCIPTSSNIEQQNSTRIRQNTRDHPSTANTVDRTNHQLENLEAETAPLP

| SMILES | IC50 [1] | IC50 [2] | IC50 [3] | EC50 [4] | IC50 [5] | EC50 [6] | EC50 [7] | EC50 [8] | EC50 [9] | EC50 [10] | IC50 [11] | EC50 [12] | EC50 [13] | EC50 [14] | AC50 [15] | EC50 [16] | IC50 [17] |
| --- | --- | --- | --- | --- | --- | --- | --- | --- | --- | --- | --- | --- | --- | --- | --- | --- | --- |
| CCOC(=O)c1cnc2c(Cl)c(Cl)ccc2c1NCCN1CCOCC1 | > 79.4 µM (inactive) | > 79.4 µM (inactive) | > 79.4 µM (inactive) | – | – | – | – | – | – | – | – | – | – | – | – | – | – |
| COc1ccc(C(=O)/C=C/C(=O)N(CC(=O)NC2CCCCC2)Cc2ccccc2)c(O)c1 | – | – | – | 1.64 µM (active) | 8.34 µM | > 60 µM (not active) | 9.06 µM (active) | > 60 µM (inconclusive) | > 120 µM (not active) | > 260 µM (inactive) | 4.97 µM (active) | > 32 µM (inactive) | > 31.5 µM (inactive) | > 32 µM (inactive) | 5.24 µM (active) | > 32 µM (inactive) | > 32 µM (inactive) |
